Measurements from patent US11078495B2, “Methods and compositions for integration defective lentiviral vectors” (The University of North Carolina at Chapel Hill, priority 2015, dated 2021).

Tested on: human embryo fibroblasts (HEFs)
Experiment: Normalized luciferase expression from IDLV (pTK993) in human embryo fibroblasts treated with Velcade and/or sodium butyrate
Format: cell-based
Details: sample i: HEFs, Velcade 25 nM for 24 hours at transduction, sodium butyrate 5 mM for 48 hours from day 19; harvested 21 days post transduction; normalized to protein content and VCN
Description: FIG. 7: A short-term treatment of host cells with proteasome inhibitor (velcade) at the time of IDLV transduction results in long-term sensitivity of IDLV expression to HDAC inhibitor (sodium butyrate) treatment. A) Depiction of a conventional self-inactivating HIV-1 vector (pTK993) from which the firefly luciferase is expressed under the control of a CMV promoter. […] B) To characterize the short- and long-term effects of HDAC and proteasome inhibitors on IDLV gene expression, human embryo fibroblasts (HEFs) were transduced with IDLV carrying the firefly luciferase cDNA under the control of a CMV promoter. HEF transduction was carried out either in the absence (samples a, d, g and h) or in the presence of Velcade (25 nM) for 24 hours (samples b, e and i) or sodium butyrate (5 mM) for 48 hours (samples c and f). At day 19 post transduction, sample g was treated with Velcade (25 nM) for 24 hours, while samples h and i were treated with sodium butyrate (5 mM) for 48 hours. Cell samples were harvested at either 48 hours (samples a-c) or 21 days post-transduction and analyzed for luciferase expression, which was normalized to protein content and vector copy number per diploid cell genome (VCN). The readout of normalized luciferase expression is shown above each sample. […]

CC(C)C[C@H](NC(=O)[C@H](Cc1ccccc1)NC(=O)c1cnccn1)B(O)O [Velcade]
fold of increase in IDLV expression (normalized luciferase) relative to sample-control: 75 fold
